ChEMBL document CHEMBL5661955, “ASAP - In vitro cytotoxicity” (2024)
Values joined by “and” are separate entries in the source; they are usually repeats but may differ in a detail not shown here. Identical values can stand only once.

Columns and labels:
[1] = (§1) Functional CPE-based assay to measure dose dependent changes in cell viability from drug treatment in Vero E6 miRFP670 cells (cotreated with P-gp inhibitor, CP100356). Cells are treated with antiviral candidates that have been serially diluted. Cytotoxicity is reported via analysis of MTS assays in uninfected cells. The assay has been performed by KU Leuven.; format: toxicity, Vero C1008; settings: chlorocebus sabaeus, Vero E6 miRFP670 cells, with CP100356 (P-gp inhibitor, concentration not stated); p-gp concentration 500 nM
[2] = Functional assay to measure dose dependent changes in cell viability from drug treatment in Vero E6 miRFP670 cells (cotreated with P-gp inhibitor, CP100356) that are infected with Dengue virus type 2 New Guinea C. […] Cytotoxicity is reported via via analysis of DAPI count using high-content imager. The assay has been performed by KU Leuven.; format: toxicity, cell-based, Vero C1008; settings: chlorocebus sabaeus, with CP100356 (P-gp inhibitor, concentration not stated); p-gp concentration 500 nM
[3] = Functional metabolic assay to measure dose dependent changes in cell viability from drug treatment in Vero E6/TMPRSS2 cells (cotreated with P-gp inhibitor, Elacridar). […] Cytotoxicity is reported via measuring absorbance and analysis of MTT/MTS assays in uninfected cells. The assay has been performed by Icahn School of Medicine at Mount Sinai.; format: toxicity, cell-based, VeroE6/TMPRSS2; settings: chlorocebus sabaeus, p-gp concentration 2 uM; for CC50: Vero E6/TMPRSS2 cells, with Elacridar (P-gp inhibitor, concentration not stated); for CC10: veroe6/tmprss2
[4] = as §1, with “cells.” for “cells (cotreated with P-gp inhibitor, CP100356).”; format: toxicity, Vero C1008; settings: chlorocebus sabaeus, Vero E6 miRFP670 cells

Compound	CC50 [1] [µM]	CC50 [2] [µM]	CC50 [3] [µM]	CC10 [3]	CC50 [4] [µM]
COc1cc(Br)cc(C(=O)Nc2ccc3c(c2)CNC3)c1	47.5	27.5	> 50	4.817 µM	
COCCNC(=O)[C@H](Nc1ccc2c(c1)CNC2)c1cc(Cl)cc(C2CC2)c1	> 50	> 50	> 50	> 50 µM	
O=C(Nc1ccc2c(c1)CNCC2)c1cc(Cl)cc2[nH]ncc12					> 50
O=C(NC[C@H]1CCCO1)[C@H](Nc1ccc2c(c1)CNC2)c1cc(Cl)cc2[nH]ncc12	> 50	> 50	> 50	> 50 µM	
Cc1cc(C(=O)Nc2ccc3c(c2)CNC3)c2cn[nH]c2c1	> 50	24		24.901 µM and 9.914 µM	
CC(C)(C)c1cc(Br)cc(C(=O)Nc2ccc3c(c2)CNC3)c1					5.77
CN1Cc2ccc(NC(=O)c3cc(Cl)cc4[nH]ncc34)cc2C1					> 50
Cn1cc2cc(Cl)cc(C(=O)Nc3ccc4c(c3)CNC4)c2n1	2.75	3.58	> 50	> 50 µM	
O=C(Nc1ccc2c(c1)CNC2)c1cc(Br)cc2ccccc12					11.4
O=C(Nc1ccc2c(c1)CNC2)c1cc(Cl)cc2c1CCC2					18.4
Nc1cc(Cl)cc(C(=O)Nc2ccc3c(c2)CNC3)c1N	> 50	> 50	> 50	< 0.023 µM	
N#CCCNC(=O)[C@H](Nc1ccc2c(c1)CNC2)c1cc(Cl)cc(C2CC2)c1	> 50	24.2	> 50	> 50 µM	
O=C(Nc1ccc2c(c1)CNC2)c1cc(Br)cc2[nH]c([C@H]3CCOC3)nc12	5.11	3.68	26.1	0.852 µM	
CNC(=O)[C@H](Nc1ccc2c(c1)CNC2)c1cc(Cl)cc(C2CC2)c1	> 50	> 50	> 50	> 50 µM	
N#C[C@H](Nc1ccc2c(c1)CNC2)c1cc(Cl)cc(C2CC2)c1	46.5	> 50	> 50	> 50 µM	
C=CC[C@H](Nc1ccc(-c2nn[nH]n2)cc1)c1cc(Cl)cc(NC(=O)OCc2ccccc2)c1		10.7			46.2
O=C(Nc1ccc2c(c1)CNC2)c1cc(F)cc2[nH]nnc12	> 50	> 50	> 50	> 50 µM	
CCCNC(=O)[C@H](Nc1cccc(-c2nn[nH]n2)c1)c1cc(Cl)cc(NC(=O)OCc2ccccc2)c1		> 50			> 50

Compound	CC50 [1] [µM]	CC50 [2] [µM]	CC50 [3] [µM]	CC10 [3]	CC50 [4] [µM]
CC(C)c1cc(Br)cc(C(=O)Nc2ccc3c(c2)CNC3)c1					11.5
O=C(NC1CCOCC1)[C@H](Nc1ccc2c(c1)CNC2)c1cc(Cl)cc(C2CC2)c1	49.9	> 50	> 50	> 50 µM	
Cn1cc(CNC(=O)[C@H](Nc2ccc3c(c2)CNC3)c2cc(Cl)cc(C3CC3)c2)cn1	> 50	> 50	> 50		
Cn1cc(CCc2nc3c(C(=O)Nc4ccc5c(c4)CNC5)cc(Cl)cc3[nH]2)cn1	> 50	> 50	> 50	17.311 µM	
O=C(Nc1ccc2c(c1)CNC2)c1cc(Br)cc2c1OCO2					23
O=C(Nc1ccc2c(c1)CNC2)c1cc(F)cc2[nH]ncc12	> 50	> 50	> 50	> 50 µM	
O=C(Nc1ccc2c(c1)CCNCC2)c1cc(Cl)cc2[nH]ncc12	> 50	> 50	44.2	7.014 µM	
O=C(NC[C@H]1CCCO1)[C@H](Nc1ccc2c(c1)CNC2)c1cc(Cl)cc(C2CC2)c1	39.2	> 50	> 50	> 50 µM	
O=C(Nc1ccc(C2CNC2)cc1)c1cc(Cl)cc2[nH]ncc12		> 50			> 50
COC(=O)CNC(=O)[C@H](Nc1ccc2c(c1)CNC2)c1cc(Cl)cc(C2CC2)c1	> 50	2.05	> 50		
Cc1ccc(NC(=O)c2cc(Cl)cc3[nH]ncc23)cc1CN	> 50	> 50	> 50	0.133 µM	
Cn1ncc2c(C(=O)Nc3ccc4c(c3)CNC4)cc(Br)cc21		> 50			> 50
O=C(NCc1ccc(F)cc1)[C@H](Nc1ccc2c(c1)CNC2)c1cc(Cl)cc2[nH]ncc12	> 50	> 50		> 50 µM	
O=C(Nc1ccc2c(c1)CNC2)c1cc(Cl)cc2ccncc12	> 50	> 50	> 50	> 50 µM	
NCc1cc(/C=C/C(=O)O)cc(NC(=O)c2cc(Cl)cc(NC(=O)OCc3ccccc3)c2)c1		15.7			> 50
N#Cc1cc(C(=O)Nc2ccc3c(c2)CNC3)cc(C(F)(F)F)c1	> 50	0.739	> 50	> 50 µM	
C=CC[C@H](Nc1cc(Cl)cc(NC(=O)OCc2ccccc2)c1)c1ccc(-c2nn[nH]n2)cc1		7.62			14.6
